{
  "source": "patent US12097232B1",
  "about": "“Method of preventing cadmium-induced renal toxicity using a plant product derived from Achillea millefolium L” (KING FAISAL UNIVERSITY, priority 2024, dated 2024)",
  "type_in_all_cases": "in vivo, Wistar rats",
  "key": {"[1]": {"assay": "Kidney weight in CdCl2-induced renal toxicity rats", "method": "(§1) Thirty-two adult male Wistar rats (8-9 weeks old, weighing, 160-180 g) were purchased from the Experimental Animal Research Centre, King Saud University, Riyadh, KSA.\nAll the animals were maintained with typical laboratory food and water ad libitum in a ventilated cage system (12 h light/dark cycle, 20.3-23.1° C.) throughout the whole experiment.\n(§2) To study the renal protective activity of Achillea millefolium essential oil (AEO) on CdCl2-induced renal toxicity, rats were randomly divided into four groups (n=8 per group). Control rats were orally administered saline 1 h before injected intraperitoneally (i.p.) with 0.9% NaCl (physiological saline) daily for 5 days. The CdCl2 group was orally administered saline 1 h before injected i.p. with 6.5 mg/kg CdCl2 daily for 5 days. The AEO group was orally administered AEO (200 mg/kg) 1 h before injected with 0.9% NaCl (physiological saline) daily for 5 days. The AEO+CdCl2 group was orally administered AEO (100 mg/kg) 1 h before injected 6.5 mg/kg CdCl2 i.p. daily for 5 days. CdCl2 was dissolved in physiological saline.\n(§3) Rats were euthanized (decapitation) 24 hours after the final dosing. The kidneys were dissected, weighed to obtain the weight and then divided into 2 parts. […] The 2nd part was kept at −80° C. for quantitative real-time qRT-PCR."}, "[2]": {"test_system": "TNF-α, IFN-γ, MCP-1, IL-10", "assay": "Renal inflammatory mediators by ELISA in Cd-induced renal toxicity", "conditions": "CdCl2 group vs control", "method": "as §1, §2\n(§4) Rats were euthanized (decapitation) 24 hours after the final dosing. The kidneys were dissected, weighed to obtain the weight and then divided into 2 parts. The 1st part was homogenized in ice-cold 10 mM phosphate buffer (pH 7.4) to produce a 10% (w/v) homogenate for biochemical analysis. The 2nd part was kept at −80° C. for quantitative real-time qRT-PCR.\nInflammation markers including interferon gamma (IFN-γ), monocyte chemoattractant protein-1 (MCP-1), tumor necrosis factor alpha (TNF-α), and interleukin 10 (IL-10) were measured using ELISA kits."}, "[3]": {"test_system": "Caspase 3, Caspase 9, Bax, Bcl2", "conditions": "CdCl2 renal injury vs control", "method": "as §1, §2, §4\n(§5) Gene expression for the TLR pathway, High-mobility group box 1 (HMBG1), Toll-Like Receptor 4 (TLR4), myeloid differentiation primary response gene 88 (MYD88), and Nuclear factor kappa B (NFκB) were quantified via real-time PCR (qPCR) consuming the primers' sequences, shown in Table 1, in agreement with the method described elsewhere. Briefly, RNA was isolated and purified using a Trizol reagent kit (Invitrogen, Carlsbad, CA, USA), then a reverse transcription polymerase chain reaction (RT-PCR) kit (TaKaRa, Kusatsu, Shiga, Japan) to reverse transcription reaction following the manufacturer's procedures. qPCR was applied using a SYBR ExScript RT-PCR kit, and quantification examinations were accomplished via an Opticon-2 Real-time PCR reactor (MJ Research, Capital Court, Reno, NV, USA). qPCR results were obtained using Step PE Applied Biosystems (Waltham, MA, USA) software. Relative gene expression data were calculated as mentioned earlier by the Livak and Schmittgen method (2−^ΔΔCq2) and presented as a fold change.\nThe actions of AEO administration on the apoptotic markers, such as caspase-3 and caspase 9 were evaluated."}, "[4]": {"test_system": "kidney function biomarkers (BUN, uric acid, creatinine, NAG)", "assay": "Kidney function biomarkers in CdCl2-induced renal toxicity", "method": "as §1, §2, §4\nBiomarkers of kidney function, i.e., Blood urea nitrogen (BUN), uric acid, and creatinine, were evaluated by using specific commercial kits. N-acetyl-β-D-glucosaminidase (NAG) is a marker of tubular toxicity was assessed using ELISA kit."}, "MDA, SOD, CAT, GPx, GSH": {"test_system": "MDA, SOD, CAT, GPx, GSH", "assay": "Renal oxidative stress markers in Cd-induced renal toxicity", "method": "as §1, §2, §4\nLipid peroxidation was assessed according to the amount of malondialdehyde (MDA). The content of reduced glutathione (GSH) was evaluated and the activities of Catalase (CAT), Superoxide dismutase (SOD) and glutathione peroxidase (GPx) were estimated using kits."}, "[5]": {"test_system": "HMGB1, TLR4, MYD88, NFκB gene expression", "conditions": "renal", "method": "as §1, §2, §4, §5"}, "[6]": {"assay": "Cd concentration in renal tissue by atomic absorption spectrophotometry", "method": "as §1, §2, §3\nThe Cd concentrations in renal tissues were estimated as mentioned before. […] The levels of metal were measured by atomic absorption spectrophotometry in a graphite furnace at 228.8 nm. The Cd values are expressed as microgram per gram of wet renal tissue."}, "[7]": {"conditions": "CdCl2 group: CdCl2 6.5 mg/kg i.p. daily 5 days, mean ± SD"}, "[8]": {"conditions": "renal, CdCl2 administered rats vs control"}, "[9]": {"conditions": "Cd experienced animals vs control"}},
  "data": [
    {"smiles": "[Cl][Cd][Cl]", "note": "[CdCl2]", "values": [
      {"measurement": "kidney weight (in words)", "setting": "[1]; CdCl2 group vs control", "result": "reduction in kidney weight"},
      {"measurement": "Kidney wt.", "setting": "[1]; [7]", "result": "1.43 ± 0.11", "unit": "g"},
      {"measurement": "IFN-γ renal level", "setting": "[2]", "result": "amplified"},
      {"measurement": "MCP-1 renal level", "setting": "[2]", "result": "amplified"},
      {"measurement": "TNF-α renal level", "setting": "[2]", "result": "amplified"},
      {"measurement": "IL-10 level", "setting": "[2]; renal", "result": "declined"},
      {"measurement": "caspase 3 renal content", "setting": "[3]", "result": "augmented"},
      {"measurement": "caspase 9 renal content", "setting": "[3]", "result": "augmented"},
      {"measurement": "Bax gene expression", "setting": "[3]; renal", "result": "augmented"},
      {"measurement": "Bcl2 gene expression", "setting": "[3]; renal", "result": "diminished"},
      {"measurement": "BUN level (in words)", "setting": "[4]; Cd-exposed rats vs control", "result": "increases"},
      {"measurement": "serum creatinine level (in words)", "setting": "[4]; Cd-exposed rats vs control", "result": "increases"},
      {"measurement": "uric acid level (in words)", "setting": "[4]; Cd-exposed rats vs control", "result": "increases"},
      {"measurement": "BUN", "setting": "[4]; [7]", "result": "40.66 ± 3.15", "unit": "mg/dL"},
      {"measurement": "NAG", "setting": "[4]; [7]", "result": "33.2 ± 6.8", "unit": "mIU/ml"},
      {"measurement": "Uric acid", "setting": "[4]; [7]", "result": "4.54 ± 0.15", "unit": "mg/dL"},
      {"measurement": "Creatinine", "setting": "[4]; serum, CdCl2 group: CdCl2 6.5 mg/kg i.p. daily 5 days, mean ± SD", "result": "0.68 ± 0.01", "unit": "mg/dL"},
      {"measurement": "renal GSH content", "setting": "MDA, SOD, CAT, GPx, GSH; CdCl2 group vs control", "result": "obvious reduction"},
      {"measurement": "CAT activity", "setting": "MDA, SOD, CAT, GPx, GSH; [8]", "result": "considerably declined"},
      {"measurement": "GPx activity", "setting": "MDA, SOD, CAT, GPx, GSH; [8]", "result": "considerably declined"},
      {"measurement": "SOD activity", "setting": "MDA, SOD, CAT, GPx, GSH; [8]", "result": "considerably declined"},
      {"measurement": "MDA level (lipid peroxidation)", "setting": "MDA, SOD, CAT, GPx, GSH; renal, CdCl2 group vs control", "result": "augmented"},
      {"measurement": "HMGB1 mRNA expression level", "setting": "[5]; Cd administered rats vs control", "result": "increased"},
      {"measurement": "MYD88 mRNA expression", "setting": "[5]; [9]", "result": "amplified significantly"},
      {"measurement": "TLR4 mRNA expression", "setting": "[5]; [9]", "result": "amplified significantly"},
      {"measurement": "nuclear NFκB p65 level", "setting": "[5]; Cd group vs control", "result": "significantly augmented"},
      {"measurement": "Cd concentration in renal tissue (in words)", "setting": "[6]; CdCl2 group vs control", "result": "significantly increased"},
      {"measurement": "Cd concentration", "setting": "[6]; [7]", "result": "0.95 ± 0.01", "unit": "μg/g renal tissue"}
    ]}
  ]
}
